Experimental data published in patent publication US20050255493A1, “Molecular targeting of the IGF-1 receptor” (priority 2002, published 2005).
Entries after “also recorded” stand apart in the source; their conditions may differ.

Assays:
IGF1R [1] = assay: IGF1R levels by immunoblotting in B16 murine melanoma cells transfected with RNAi duplexes; type: cell-based; details: 10 nM duplex, 48 hr
Protocol: The human and murine cell lines used in this study were cultured in RPMI 1640 plus 10% FCS at 37° C. in a humidified atmosphere of 5% CO2. The cultures were negative when tested for Mycoplasma infection. Cultures were passaged the day before transfection to achieve 30-50% confluence the following day. Initial transfections of ASOs used 1-2.5 μg/ml Cytofectin (Glen Research, Sterling, Va.), according to the manufacturer's instructions. Latterly Oligofectamine (Life Sciences) has been used for all ASO and RNAi transfections. The method was as described (see manufacturer's instructions and www.dharmacon.com) with minor modifications. […] After 48 hr incubation effects on IGF1R and IR expression were determined by immunoblotting. […]
IGF1R expression was assessed by immunoblotting as previously described (Macaulay et al 2001). […] Lysates were centrifuged for 15 minutes at 14,000 g, the protein concentration of supernatants was measured using BCA assay reagent (Pierce), and equivalent amounts of protein were separated on 7.5% SDS-PAGE gels and transferred to nitrocellulose. Target protein levels were assessed using antibodies to the β-subunit of the IGF1R or IR (Santa Cruz), phospho-Ser 473 Akt or total Akt (Cell Signalling, New England Biolabs) or β-tubulin (Sigma). Activated IGF1R was detected by immunoprecipitation for phosphotyrosine (P-Tyr-100, Cell Signaling Technology). […]

[2] = tested on: UC101 human ovarian cancer cells; assay: Tumorigenicity of UC101 ovarian cancer cells transfected with siRNA (xenografts); type: in vivo, female athymic (nu/nu mice); details: UC101 cells transfected with 200 nM siRNA, nu/nu mice
Protocol: UC101 ovarian cancer cells were transfected with 200 nM siRNA, mixed with irradiated NIH-3T3 cells and inoculated into the flanks of female athymic (nu/nu mice).
Tumorigenicity testing was conducted using UC101 human ovarian cancer cells transfected with 200 nM siRNA. After 48 hr the cells were inoculated into the flanks of female athymic (nu/nu mice), using 5×10^6 tumour cells mixed with 5×10^6 irradiated NIH-3T3 cells per mouse. Tumours were measured and volumes calculated as described (Macaulay et al., Oncogene 20: 2029-40, 2001). All procedures were performed in accordance with the Home Office Scientific Procedures Act 1986, and with the approval of the Animal Ethics Committee of Cancer Research UK.

IGF1R [3] = assay: IGF1R levels by immunoblotting in human tumour cell lines transfected with RNAi duplexes; type: cell-based; details: for IGF1R level as % of levels in cells transfected with inverted control duplex: 10 nM duplex, 48 hr
Protocol: (§1) The human and murine cell lines used in this study were cultured in RPMI 1640 plus 10% FCS at 37° C. in a humidified atmosphere of 5% CO2. The cultures were negative when tested for Mycoplasma infection. Cultures were passaged the day before transfection to achieve 30-50% confluence the following day. Initial transfections of ASOs used 1-2.5 μg/ml Cytofectin (Glen Research, Sterling, Va.), according to the manufacturer's instructions. Latterly Oligofectamine (Life Sciences) has been used for all ASO and RNAi transfections. The method was as described (see manufacturer's instructions and www.dharmacon.com) with minor modifications. For transfection of monolayers seeded in 6 well plates, 5 μl phosphorothioate oligonucleotide or RNA duplex at 100× final concentration were mixed with 2501 serum-free Optimem (Gibco-BRL). In a separate tube 2 μl Oligofectamine was mixed with 68 μl Optimem. After 10 min incubation at room temperature the contents of the two tubes were mixed and incubated for a further 25 min at room temperature. Monolayers were washed with 1-2 ml Optimem. To the cells were added 175 μl Optimem followed by the 325 μl complexes. Volumes were scaled up by factors of 2.22 or 6.05 for transfection in 60 mm or 100 mm dishes respectively. Cultures were incubated at 37° C. for 4 hr, and then 50 μl FCS and 3.5 ml RPMI plus 5% FCS were added to each well. After 48 hr incubation effects on IGF1R and IR expression were determined by immunoblotting. Some transfected cultures were serum-starved overnight, divided into two aliquots and treated with 10 nM Long R3-IGF-I (GroPep, Adelaide) or diluent for 30 min at 37° C. prior to lysis.
IGF1R expression was assessed by immunoblotting as previously described (Macaulay et al 2001). After washing in ice-cold PBS, cells were lysed in 50 mM Hepes pH 7.5, 100 mM NaCl, 10 mM EDTA, 1% Triton-X-100, 4 mM sodium pyrophosphate, 2 mM sodium orthovanadate, 10 mM sodium fluoride, 1 mM PMSF, 2 μg/ml each leupeptin and aprotinin. Lysates were centrifuged for 15 minutes at 14,000 g, the protein concentration of supernatants was measured using BCA assay reagent (Pierce), and equivalent amounts of protein were separated on 7.5% SDS-PAGE gels and transferred to nitrocellulose. Target protein levels were assessed using antibodies to the β-subunit of the IGF1R or IR (Santa Cruz), phospho-Ser 473 Akt or total Akt (Cell Signalling, New England Biolabs) or β-tubulin (Sigma). Activated IGF1R was detected by immunoprecipitation for phosphotyrosine (P-Tyr-100, Cell Signaling Technology). Primary antibodies were detected with HRP-conjugated secondary antibodies (Dako), and ECL Plus (Amersham Pharmacia). […]
Tumour cells were transfected with 10 nM duplexes and IGF1R levels were measured after 48 hr. After correction for loading differences IGF1R levels in cells transfected with RNAi were expressed as % of levels in cells transfected with equivalent inverted control duplex.

IGF1R [4] = assay: IGF1R level by immunoblotting in transfected MDA-231 cells; type: cell-based, human
Protocol: as §1
(§2) IGF1R expression was assessed by immunoblotting as previously described (Macaulay et al 2001). After washing in ice-cold PBS, cells were lysed in 50 mM Hepes pH 7.5, 100 mM NaCl, 10 mM EDTA, 1% Triton-X-100, 4 mM sodium pyrophosphate, 2 mM sodium orthovanadate, 10 mM sodium fluoride, 1 mM PMSF, 2 μg/ml each leupeptin and aprotinin. Lysates were centrifuged for 15 minutes at 14,000 g, the protein concentration of supernatants was measured using BCA assay reagent (Pierce), and equivalent amounts of protein were separated on 7.5% SDS-PAGE gels and transferred to nitrocellulose. Target protein levels were assessed using antibodies to the β-subunit of the IGF1R or IR (Santa Cruz), phospho-Ser 473 Akt or total Akt (Cell Signalling, New England Biolabs) or β-tubulin (Sigma). Activated IGF1R was detected by immunoprecipitation for phosphotyrosine (P-Tyr-100, Cell Signaling Technology). Primary antibodies were detected with HRP-conjugated secondary antibodies (Dako), and ECL Plus (Amersham Pharmacia).
The ASOs and RNAi duplexes were transfected into MDA-231 cells (human ER negative breast cancer) using Cytofectin or Oligofectamine, as described above. After 48 hr the cells were lysed, and IGF1R and IR levels were measured by immunoblotting. The intensity of the autoradiographic bands was quantified by densitometry, and IGF1R (or IR) levels were corrected for loading differences. The specific IGF1R or IR results are presented as % IGF1R (or IR) level of that in cells transfected with the same concentration of an appropriate control. This was a scrambled control oligonucleotide for ASOs, and an inverted RNA duplex for RNAi.

IGF-I signaling to Akt = assay: IGF signalling: phosphorylation of IGF1R β-subunit and Akt after IGF-I in transfected MDA-MB-231 cells; type: cell-based, human; details: MDA-MB-231, 100 nM duplexes, 50 nM IGF-1 for 30 min
Protocol: as §2
MDA-MB-231 cells transfected with 100 nM RNA duplexes were serum-starved overnight and treated with 50 nM IGF-1 or diluent for 30 min. The cells were lysed and lysates were analysed by immunoblotting for IGF1R, phospho-Ser473-Akt and total Akt, and by phosphotyrosine immunoprecipitation and IGF1R immunoblotting to detect phosphorylated IGF1R β-subunit (see FIG. 7).

B16 melanoma cells = assay: Growth in vivo of B16 melanoma cells transfected with RNA duplexes; details: B16 cells transfected with 200 nM duplex on three consecutive days, flanks of C57BL mice
Protocol: FIG. 8 illustrates growth in vivo in C57BL mice of B16 melanoma cells transfected with RNA duplexes. B16 melanoma cells were transfected with 200 nM duplexes (RNA22 is R2, Inv22 is Inv2) or oligofectamine alone (OF) for three consecutive days. On the 4th day cells were injected into the flanks of C57BL mice, using 2.5×10^5 cells/mouse, using groups of 5 mice. Tumours were measured in 2 dimensions every 2-3 days. Tumour volumes were calculated as n(a×b^2)/6 where a is the larger and b the smaller dimension.
B16 cells were transfected with 200 nM RNA duplexes (RNA22=R2, 22Inv=Inv2) or oligofectamine alone (OF) for three consecutive days. On the 4th day cells were injected into the flanks of C57BL mice, using 2.5×10^5 cells/mouse, using groups of 5 mice. Tumours were measured in 2 dimensions every 2-3 days. Tumour volumes were calculated as n(a×b^2)/6 where a is the larger and b the smaller dimension.

IGF1R [5] = assay: IGF1R Western blot in prostate cancer cells transfected with siRNA TSS; type: cell-based, human; details: for IGF1R level, % of levels in cells treated with control duplex: 48 hours after transfection
Protocol: Prostate cancer cells were transfected with 200 nM siRNA TSS homologous to nt 166-186 of the IGF1R gene or inverted sequence control.
as §1, §2

[6] = tested on: Human EJ28 invasive bladder carcinoma cells; assay: Survival and mitomycin-C sensitivity of EJ28 invasive bladder carcinoma cells; type: cell-based; details: human bladder cancer cells
Protocol: FIG. 20 illustrates that IGF1R gene silencing inhibits survival and enhances chemosensitivity of invasive bladder cancer. Human EJ28 invasive bladder carcinoma cells were transfected with 200 nM TSS or control duplex. After 48 hr the cells were disaggregated and re-seeded. To measure survival, 2000 cells were seeded in 10 cm dishes. Survival in TSS-transfected cells was only 0.2% of that in control-treated cultures, p<0.001). For chemosensitivity testing, cells were re-seeded into 96-well plates. The following day cultures were treated with mitomycin-C at the indicated concentrations for 24 hours, after which the medium was changed. After a further 4 days, growth was measured by calorimetric assay (MTS assay).

[7] = tested on: Human prostate cancer cells; assay: Clonogenic survival of human prostate cancer cells transfected with siRNA TSS; type: cell-based; details: all three prostate cancer cell lines (DU145, PC3, LNCaP), 200 nM
Protocol: FIG. 18 illustrates how IGF1R gene silencing inhibits survival of prostate cancer cells. Human prostate cancer cells were transfected with 200 nM TSS or control duplex. After 48 hr the cells were disaggregated and re-seeded in 10 cm dishes (2000 cells/dish). After 1-3 weeks incubation (depending on the cell line), visible colonies were stained and counted. Bars show mean±sem of triplicate dishes. **p<0.01, ***p<0.001 for comparison of survival in cultures treated with TSS versus control duplex.

DU145 and PC3 cells = assay: Radio- and chemosensitivity of prostate cancer cells after IGF1R gene silencing (clonogenic, change in IC50); type: cell-based, human; details: 200 nM duplex (FIG. 19)
Protocol: FIG. 19 illustrates that IGF1R gene silencing enhances chemosensitivity of androgen-resistant prostate cancer. PC3 cells were transfected with 200 nM TSS (red line) or scrambled sequence control duplex (green). After 48 hr the cells were disaggregated and re-seeded in 10 cm dishes (4000 cells/dish). The following day the cultures were treated with mitoxantrone at the indicated concentrations for 24 hours, after which the medium was changed and cells were allowed to survive to form colonies (>50 cells). Dotted lines mark IC501 dose required to inhibit survival to 50% untreated level.
Furthermore, IGF1R gene silencing appeared to enhance prostate cancer radio- and chemo-sensitivity (FIG. 19). The alteration in sensitivity was calculated as change in IC50, the concentration of drug/irradiation required to reduce the colony count to 50% of that in untreated cultures, as follows: [formula]

Substance	IGF1R level as % of levels in cells transfected with inverted control duplex (IGF1R [1]) [%]	Tumour development [2]	IGF1R downregulation (IGF1R [3]; 10 nM, human ME melanoma and A549 NSCLC)	IGF1R level as % of levels in cells transfected with inverted control duplex (IGF1R [3]; A549 human non-small cell lung) [%]	IGF1R level as % of levels in cells transfected with inverted control duplex (IGF1R [3]; DU145 human prostate cancer) [%]	IGF1R level as % of levels in cells transfected with inverted control duplex (IGF1R [3]; ME human melanoma) [%]	IGF1R downregulation compared between 21mer duplexes (IGF1R [4]; MDA-231 cells, 0.5, 5 and 50 nm (FIG. 5))	IGF-I signaling to Akt / IGF-1-induced phosphorylation (IGF-I signaling to Akt)	Tumour growth in vivo compared with inverted control RNA duplex (B16 melanoma cells)	Inhibition of IGF1R expression on immunoblot (IGF1R [3]; ME melanoma cells, 10-200 nM)	Inhibition of IGF1R expression on immunoblot (IGF1R [4]; MDA-231 breast cancer cells, 10-200 nM)	IGF1R level, % of levels in cells treated with control duplex (IGF1R [5]; DU145, 200 nM) [%]	IGF1R level, % of levels in cells treated with control duplex (IGF1R [5]; LNCaP, 200 nM) [%]	IGF1R level, % of levels in cells treated with control duplex (IGF1R [5]; PC3, 200 nM) [%]	Inhibition of IGF1R expression (IGF1R [5]; all three prostate cancer cell lines (DU145, PC3, LNCaP))	Clonogenic survival [6]	Sensitivity to mitomycin-C ([6]; MTS assay)	Inhibition of clonogenic survival [7]	Change in mitoxantrone IC50 (DU145 and PC3 cells) [fold]	IGF1R gene silencing (IGF1R [4]; MDA-MB-231 human breast carcinoma cells)
R6: RNAi duplex CUACAUUGUGGGGAAUAAGTT / TTGAUGUAACACCCCUUAUUC, SEQ ID NO:34 (CUACAUUGUGGGGAAUAAGNN; second strand not cited, chemistry not fully specified)	72 ± 14	rapidly growing tumours	essentially inactive	102 ± 16	74 ± 8	104 ± 5	significantly less potent; also recorded: less than the effect of the mutant duplex Mut2	not sufficient to abolish IGF-I signaling to Akt												
R2: RNAi duplex GCCGAUGUGUGAGAAGACCTT / TTCGGCUACACACUCUUCUGG, SEQ ID NO:23 (sense GCCGAUGUGUGAGAAGACCNN; chemistry not fully specified; one strand is listed 3' to 5')	45 ± 4			22 ± 2	34 ± 13	53 ± 3		could not detect IGF-1-induced phosphorylation of the IGF1R β-subunit or of Akt	reduced growth rate in vivo	almost complete inhibition of IGF1R expression	almost complete inhibition of IGF1R expression									
siRNA TSS: 21mer duplex homologous to nucleotides 166-186 of the IGF1R transcript, CGACUAUCAGCAGCUGAAGTT / TTGCUGAUAGUCGUCGACUUC, SEQ ID NO:37 (CGACUAUCAGCAGCUGAAGNN; second strand not cited, chemistry not fully specified)												18	17	22	significant inhibition	profound inhibition of clonogenic survival	enhancement of sensitivity to mitomycin-C	significant inhibition	−2	induce IGF1R gene silencing
